Reference: US4520022A, “Substituted vinyl cephalosporins” (priority 1983, dated 1985)
Values after ≈ are worked out from the molar mass of the structure shown. Where two headings read alike, the source gives them in different places.

Experiments:
[1] = in vivo; settings: mouse; for half-life: T1/2
[2] = system: Gp Ib: S. aureus 193, BX-1633-2 A9606, A15092, Russell, A9602; settings: Staphylococcus aureus, read-out: Minimum Inhibitory Concentration Gp Ib, Mueller-Hinton agar, average of five organisms
[3] = system: Gp Ia: S. aureus Smith A9537, A9497, Terajima, A9534, A9601; settings: Staphylococcus aureus, read-out: Minimum Inhibitory Concentration Gp Ia, Mueller-Hinton agar, average of five organisms
[4] = mouse, in vivo
[5] = system: S. aureus Smith; assay: Protective dose, mice infected with lethal inoculum, oral treatment, S. aureus Smith; format: in vivo; settings: Staphylococcus aureus, po, 120 h, oral; 50% survival for 5 days; groups of 5 mice; read-out: Protective dose (PD50), S. aureus Smith
[6] = system: E. coli Juhl; assay: Protective dose, mice infected with lethal inoculum, oral treatment, E. coli Juhl; format: in vivo; settings: for ED50: Escherichia coli, po, 120 h, oral, 50% survival for 5 days, groups of 5 mice, read-out: Protective dose (PD50), E. coli Juhl

Row | MIC ([2]; run 1) [µg/mL] | MIC ([3]; run 1) [µg/mL] | SMILES | AUC ([1]; im, 20 mg/kg, AUC*) [ng·h/mL] | Cmax ([1]; im, 20 mg/kg) [ng/mL] | half-life ([1]; im, 20 mg/kg) [h] | AUC ([1]; po, 20 mg/kg, AUC*) [ng·h/mL] | Cmax ([1]; po, 20 mg/kg) [ng/mL] | half-life ([1]; po, 20 mg/kg) [h] | AUC ([1]; po, 100 mg/kg, AUC) [ng·h/mL] | Cmax ([1]; po, 100 mg/kg) [ng/mL] | half-life ([1]; po, 100 mg/kg) [h] | oral absorption ([4]; po) | ED50 [5] [mg/kg] | ED50 [6] [mg/kg] | activity against the Gram- infection ([6]; in words) | T1/2 ([4]; im, 20 mg/kg) [h] | T1/2 ([4]; po, 20 mg/kg) [h] | T1/2 ([4]; po, 100 mg/kg) [h] | MIC ([2]; run 2) [µg/mL] | MIC ([3]; run 2) [µg/mL]
1 | 2.1 (≈ 5.01 µM) | 0.53 (≈ 1.26 µM) | COC/C=C\C1=C(C(=O)O)N2C(=O)[C@@H](NC(=O)[C@H](N)c3ccc(O)cc3)[C@H]2SC1 [Compound 17, 7β-[D-2-Amino-2-(p-hydroxyphenyl)acetamido]-3-[(Z)-3-methoxy-1-propen-1-yl]-3-cephem-4-carboxylic Acid] | 19000 | 24000 | 0.6 | 28000 | 18000 | 1.6 | 197000 | 73000 | 1.7 | – | – | – | – | – | – | – | – | –
2 | 2.7 (≈ 5.53 µM) | 0.61 (≈ 1.25 µM) | N[C@@H](C(=O)N[C@@H]1C(=O)N2C(C(=O)O)=C(C=CCSc3cnn[nH]3)CS[C@H]12)c1ccc(O)cc1 [Compound 21, 7β-[D-2-Amino-2-(p-hydroxyphenyl)acetamido]-3-[3-(1H-1,2,3-triazol-5-yl)thio-1-propen-1-yl]-3-cephem-4-carboxylic Acid] | 9600 | 16000 | 0.54 | 6600 | 1700 | 2.6 | 19000 | 4400 | 3.2 | Uniformly good oral absorption is reflected except for Compound No. 21 | – | – | – | – | – | – | – | –
3 | – | – | C/C=C\C1=C(C(=O)O)N2C(=O)[C@@H](NC(=O)[C@H](N)c3ccc(O)c(Cl)c3)[C@H]2SC1 [Compound 32, 7β-[D-2-Amino-2-(3-chloro-4-hydroxyphenyl)acetamido]-3-[(Z)-1-propen-1-yl]-3-cephem-4-carboxylic acid] | 13000 | 21000 | 0.48 | 13000 | 7900 | 1.7 | 37000 | 25000 | 1.7 | – | 0.17 | 3.04 | – | – | – | – | 0.53 (≈ 1.25 µM) | 0.13 (≈ 0.307 µM)

Row | SMILES | MIC ([2]; run 1) [µg/mL] | MIC ([3]; run 1) [µg/mL] | AUC ([1]; im, 20 mg/kg, AUC*) [ng·h/mL] | Cmax ([1]; im, 20 mg/kg) [ng/mL] | half-life ([1]; im, 20 mg/kg) [h] | AUC ([1]; po, 20 mg/kg, AUC*) [ng·h/mL] | Cmax ([1]; po, 20 mg/kg) [ng/mL] | half-life ([1]; po, 20 mg/kg) [h] | AUC ([1]; po, 100 mg/kg, AUC) [ng·h/mL] | Cmax ([1]; po, 100 mg/kg) [ng/mL] | half-life ([1]; po, 100 mg/kg) [h] | oral absorption ([4]; po) | ED50 [5] [mg/kg] | ED50 [6] [mg/kg] | activity against the Gram- infection ([6]; in words) | T1/2 ([4]; im, 20 mg/kg) [h] | T1/2 ([4]; po, 20 mg/kg) [h] | T1/2 ([4]; po, 100 mg/kg) [h] | MIC ([2]; run 2) [µg/mL] | MIC ([3]; run 2) [µg/mL]
4 | C/C=C\C1=C(C(=O)O)N2C(=O)[C@@H](NC(=O)[C@H](N)c3ccccc3)[C@H]2SC1 [Compound 24, 7β-(D(-)-2-Amino-2-phenylacetamido)-3-[(Z)-1-propen-1-yl]-3-cephem-4-carboxylic acid] | 0.92 (≈ 2.46 µM) | 0.23 (≈ 0.616 µM) | 22000 | 31000 | 0.5 | 15000 | 7800 | 1.3 | 84000 | 40000 | 1.1 | – | 0.18 | 1.5 | more active against the Gram- infection | 0.58 | 0.69 | 1.1 | 0.92 (≈ 2.46 µM) | 0.3 (≈ 0.803 µM)
